Test results as given in PubChem BioAssay (NCI).
“And” between values parts separate entries of the source, which are not always exact repeats. Equal entries are not always repeated.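 Values below derive from 48-hour exposures of cells grown in 96-well plates, with endpoints linearly interpolated between the two concentrations bracketing the appropriate inhibition level. The concentration for 50% growth inhibition is given as GI50. The concentration for full growth arrest is given as TGI.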

Tests used:
Assay in all cases: NCI-60 cell line screen, 48 h
[1] = system: A498 renal
[2] = system: MCF7 breast
[3] = system: MDA-MB-231 breast
[4] = system: OVCAR-5 ovarian
[5] = system: SF-295 CNS
[6] = system: SK-OV-3 ovarian
[7] = system: SN12C renal
[8] = system: SW-620 colon
[9] = system: TK-10 renal
[10] = system: UACC-62 melanoma

SMILES | GI50 [1] | TGI [1] | GI50 [2] | TGI [2] | GI50 [3] | TGI [3] | GI50 [4] | TGI [4] | GI50 [5] | TGI [5] | GI50 [6] | TGI [6] | GI50 [7] | TGI [7] | GI50 [8] | TGI [8] | GI50 [9] | TGI [9] | GI50 [10] | TGI [10]
O=C(CCC(C(=O)c1ccccc1)c1ccccc1)c1ccccc1 (stereo not drawn) | 1.44 µM | 58.1 µM | 15.1 µM | > 100 µM | 23.4 µM | > 100 µM | 80.4 µM | > 100 µM | 6.83 µM | > 100 µM | 78.8 µM | > 100 µM | 20.2 µM | > 100 µM | 3.75 µM | > 100 µM | 38.6 µM | > 100 µM | 7.15 µM | > 100 µM
Nc1c(C(=O)c2ccc(CCCN3CCOCC3)cc2)cnn1-c1ccc(F)cc1 | > 14.5 µM | > 25 µM | > 25 µM | > 25 µM | > 25 µM | > 25 µM | > 25 µM | > 25 µM | > 25 µM | > 25 µM | > 25 µM | > 25 µM | > 25 µM | > 25 µM | > 25 µM | > 25 µM | > 25 µM | > 25 µM | > 25 µM | > 25 µM
CSc1ncnc2c1ncn2C1OC(CO)C(O)OC1O (stereo not drawn) | – | > 53.1 µM | – | > 100 µM | – | 14.6 µM | – | > 23.3 µM | – | > 71.3 µM | – | > 100 µM | – | 41.3 µM | – | > 100 µM | – | 1.19 µM | – | 18.5 µM
OCC1OC(n2cnc3c(Cl)nc(Cl)cc32)C(O)C1O (stereo not drawn) | – | – | > 100 µM | > 100 µM | – | – | > 100 µM | > 100 µM | > 100 µM | > 100 µM | > 100 µM | > 100 µM | > 100 µM | > 100 µM | > 100 µM | > 100 µM | > 100 µM | > 100 µM | > 100 µM | > 100 µM
CC[C@@]1(O)C(=O)OCc2c1cc1n(c2=O)Cc2c-1nc1cc3c(cc1c2C)OCO3 | 0.000257 µM | 0.0272 µM and 0.0285 µM | < 0.0001 µM | 0.299 µM | 0.0147 µM | > 100 µM | 0.0694 µM | 0.0379 µM | < 0.0001 µM | – | < 0.0001 µM | 0.25 µM and 0.331 µM | < 0.0001 µM | 27 µM | < 0.0001 µM | > 100 µM | 0.043 µM and 0.0311 µM | 3.56 µM | < 0.0001 µM | 0.0143 µM
NC1=NCCN1CC(=O)O | > 10000 µM | > 10000 µM | > 10000 µM | > 10000 µM | > 10000 µM | > 10000 µM | > 10000 µM | > 10000 µM | – | > 10000 µM | > 10000 µM | > 10000 µM | > 10000 µM | > 10000 µM | > 10000 µM | > 10000 µM | > 10000 µM | > 10000 µM | > 10000 µM | > 10000 µM
COc1ccc2nc3ccccc3c(NCCCN(C)CCCl)c2c1 | – | 2.42 µM | – | 1.46 µM | – | – | – | 3.4 µM | – | 2.44 µM | – | 3.34 µM | – | 1.55 µM | – | 1.48 µM | – | 4.08 µM | – | 2.05 µM
C=C(C)[C@@H]1CC[C@]2(CO)CC[C@]3(C)[C@H](CC[C@@H]4[C@@]5(C)CCC(NCCc6ccc(O)cc6)C(C)(C)[C@@H]5CC[C@]43C)[C@@H]12 (stereo partly drawn) | 1.32 µM | 2.69 µM | 0.912 µM | 2.57 µM | 1.64 µM | 3.09 µM | 1.59 µM | 2.96 µM | – | – | 1.77 µM | 3.21 µM | 1.67 µM | 3.19 µM | 1.41 µM | 2.89 µM | 1.65 µM | 3.13 µM | 1.63 µM | 3.09 µM
Cc1cn2c(/C=N/N=C(N)N)c(-c3cccnc3)nc2s1 | – | – | 20.8 µM | > 100 µM | 10.1 µM | 24.2 µM | 15.2 µM | 28.5 µM | 11.9 µM | 26.5 µM | 15.9 µM | 33.3 µM | – | – | 11.5 µM | 35.2 µM | 6.85 µM | 21.3 µM | 11 µM | 23.6 µM
CCCCCCc1nc2nc(Cl)c(Cl)nc2[nH]1 | 3.81 µM | > 100 µM | 4.08 µM | > 100 µM | 35.9 µM | > 100 µM | > 100 µM | > 100 µM | – | – | > 100 µM | > 100 µM | 4.26 µM | > 100 µM | > 100 µM | > 100 µM | 9.9 µM | > 100 µM | 3.2 µM | > 100 µM
S=c1nc(Cl)cc2[nH]c(Cl)cn12 | – | 56.9 µM | – | 19.3 µM | – | 43.9 µM | – | – | – | 14.4 µM | – | 8.4 µM | – | > 100 µM | – | > 100 µM | – | > 100 µM | – | > 100 µM
C=C(CN1CCN(c2cccc(C(F)(F)F)n2)CC1)c1ccc(C(=S)Nc2ccccc2N)cc1 | 2.57 µM | > 100 µM | 2.87 µM | 14.5 µM | 2.52 µM | 8.9 µM | 3.67 µM | > 100 µM | 3.48 µM | > 100 µM | – | – | 4.64 µM | > 100 µM | 4.07 µM | 72.2 µM | 3.13 µM | > 100 µM | 2.28 µM | 6.89 µM
O=C(/C(=C/c1ccc([N+](=O)[O-])cc1)SCc1ccc(F)cc1)c1ccc(Cl)cc1 | > 100 µM | > 100 µM | – | – | 4.37 µM | 23 µM | 12.7 µM | 38.9 µM | 7.09 µM | 25.1 µM | 37.1 µM | > 100 µM | 6.94 µM | 34.5 µM | 2.03 µM | 4.78 µM | 20.1 µM | 54.8 µM | 5.4 µM | 36.6 µM
C=CN(C)S(C)(=O)=O | > 100 µM | > 100 µM | > 100 µM | > 100 µM | > 100 µM | > 100 µM | > 100 µM | > 100 µM | > 100 µM | > 100 µM | > 100 µM | > 100 µM | > 100 µM | > 100 µM | > 100 µM | > 100 µM | – | – | > 100 µM | > 100 µM
CN(C)CCOC(c1ccccc1)c1ccccc1 | 40.9 µM | 58.4 µM | 36.5 µM | 54 µM and > 100 µM | 15.6 µM | 45.2 µM and > 100 µM | 36.7 µM | 52.4 µM and > 100 µM | – | – | 40.6 µM | 54.8 µM | 34.6 µM | 50.2 µM and > 100 µM | 35.1 µM | 51.8 µM and > 100 µM | 45.9 µM | 59.7 µM and > 100 µM | 32.7 µM | 48.4 µM
O=C1OC(c2ccccc2)(c2cc(Br)c(O)c(Br)c2)c2ccccc21 (stereo not drawn) | 21.1 µM | 52 µM | 23.8 µM | 78.7 µM | 25.9 µM | 86.1 µM | 31.8 µM | > 100 µM | 17.5 µM | 59.1 µM | 21.4 µM | 53.7 µM | 50 µM | > 100 µM | 27 µM | > 100 µM | – | – | 15.6 µM | 31.7 µM
O=c1c2c3c(sc2nc(N/N=C/c2ccc(Br)cc2)n1Cc1ccccc1)CCCC3 | > 100 µM | > 100 µM | 5.63 µM | > 100 µM | 48 µM | > 100 µM | > 100 µM | > 100 µM | 5.75 µM | > 100 µM | > 100 µM | > 100 µM | – | – | 46.2 µM | > 100 µM | 39.9 µM | > 100 µM | > 100 µM | > 100 µM
O=C(NO)c1ccc(Cn2c(=O)n(-c3ccccc3F)c(=O)c3ccccc32)cc1 | 1.02 µM | 2.57 µM | 2.21 µM | > 100 µM | 3.03 µM | 7.89 µM | 1.45 µM | 7 µM | 1.66 µM | 3.29 µM | 1.96 µM | 4.87 µM | – | – | 1.59 µM | 4.37 µM | 1.43 µM | 5.16 µM | 1.24 µM | 3.02 µM
COc1ccc2c(c1OC)OCC(CN(C)C)C2=O (stereo not drawn) | – | – | – | 27.5 µM | – | 34.6 µM | – | 35.7 µM | – | > 100 µM | – | > 57.3 µM | – | 34 µM | – | 26.4 µM | – | 34.4 µM | – | 32.1 µM
O=S(=O)(Nc1cc(Cl)ccc1Cl)c1ccc(-c2cnc(C3CC3)o2)cc1 | – | – | 0.557 µM | > 100 µM | 4.31 µM | 43 µM | 3.39 µM | > 100 µM | 0.406 µM | 10.3 µM | 5.3 µM | 85.5 µM | 4.32 µM | > 100 µM | 0.814 µM | > 100 µM | 13.6 µM | > 100 µM | 0.399 µM | 23.9 µM
COc1ccc(CNc2nc3cc(N)cc(N)c3nc2-c2ccccc2)cc1 | > 100 µM | > 100 µM | 13.2 µM | 26.5 µM | 2.9 µM | 13.8 µM | 20.8 µM | 46.2 µM | 17.8 µM | 32.4 µM | – | – | 16.8 µM | 34.3 µM | 12.8 µM | 30 µM | 28.1 µM | 57.8 µM | 14.9 µM | 29.8 µM
COc1cc(OC)c(NC(=O)c2cc3ccccc3cc2O)cc1Cl | 2.15 µM | 5.57 µM | 2.51 µM | 9.08 µM | 1.78 µM | 4.78 µM | 4.7 µM | 34.5 µM | 2.8 µM | 9.16 µM | – | – | 2.26 µM | 7.67 µM | 3.63 µM | 18.8 µM | 3.15 µM | 8.57 µM | 2.87 µM | 14.1 µM
